Reference: ChEMBL document CHEMBL4038272, “Synthesis and biological evaluation of novel podophyllotoxin-NSAIDs conjugates as multifunctional anti-MDR agents against resistant human hepatocellular carcinoma Bel-7402/5-FU cells” (Eur J Med Chem, 2017)
Calls of active or inactive are those of the source. No cut-off for these calls is given here.

Legend:
[1] = tested on: Bel-7402; assay: Antiproliferative activity against human Bel7402 cells after 72 hrs by CCK-8 assay; assay type: functional, cell-based; conditions: Bel-7402, 72 h
[2] = tested on: Bel7402/5-FU; assay: Induction of apoptosis in human Bel7402/5-FU cells assessed as ratio of cleaved caspase-8 to beta-actin level at 0.05 uM after 48 hrs by Western blot analysis (reference value: 0.17); assay type: functional
[3] = tested on: Bel7402/5-FU; assay: Effect on iNOS expression in human Bel7402/5-FU cells assessed as ratio of iNOS to beta-actin level at 0.05 uM after 48 hrs by Western blot analysis (reference value: 0.13); assay type: functional
[4] = tested on: Bel7402/5-FU; assay: Induction of apoptosis in human Bel7402/5-FU cells at 0.05 uM after 24 hrs by Hoechst 33342 staining based fluorescent microscopic method; assay type: functional, cell-based
[5] = tested on: Bel7402/5-FU; assay: Induction of apoptosis in human Bel7402/5-FU cells assessed as morphological changes at 0.05 uM after 24 hrs by Hoechst 33342 staining based fluorescent microscopic method; assay type: functional, cell-based
[6] = tested on: Bel7402/5-FU; assay: Induction of apoptosis in human Bel7402/5-FU cells assessed as ratio of cleaved caspase-3 to beta-actin level at 0.05 uM after 48 hrs by Western blot analysis (reference value: 0.19); assay type: functional
[7] = tested on: Bel7402/5-FU; assay: Effect on E-cadherin expression in human Bel7402/5-FU cells assessed as ratio of E-cadherin to beta-actin level at 0.05 uM after 48 hrs by Western blot analysis (reference value: 0.2); assay type: functional
[8] = tested on: Bel7402/5-FU; assay: Induction of apoptosis in human Bel7402/5-FU cells assessed as ratio of cleaved PARP to beta-actin level at 0.05 uM after 48 hrs by Western blot analysis (reference value: 0.2); assay type: functional
[9] = target: Mitogen-activated protein kinase; ERK1/ERK2 (Homo sapiens) (UniProt P27361+P28482); assay: Effect on ERK1/2 phosphorylation in human Bel7402/5-FU cells assessed as ratio of phosphorylated ERK1/2 to beta-actin level at 0.05 uM after 48 hrs by Western blot analysis (reference value: 0.59); assay type: cell-based
Chain of Mitogen-activated protein kinase; ERK1/ERK2 (Homo sapiens) (P27361 whole entry, looked up): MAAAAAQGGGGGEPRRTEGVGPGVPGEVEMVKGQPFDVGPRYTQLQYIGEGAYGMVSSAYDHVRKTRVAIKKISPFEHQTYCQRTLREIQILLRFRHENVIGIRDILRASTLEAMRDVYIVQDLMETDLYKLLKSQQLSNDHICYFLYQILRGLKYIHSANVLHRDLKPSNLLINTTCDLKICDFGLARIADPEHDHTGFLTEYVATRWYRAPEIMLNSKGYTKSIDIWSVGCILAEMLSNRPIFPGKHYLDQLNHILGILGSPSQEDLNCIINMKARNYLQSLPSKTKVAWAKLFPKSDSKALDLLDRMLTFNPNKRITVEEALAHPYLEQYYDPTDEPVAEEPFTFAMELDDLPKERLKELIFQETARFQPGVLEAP
Chain of Mitogen-activated protein kinase; ERK1/ERK2 (Homo sapiens) (P28482 whole entry, looked up): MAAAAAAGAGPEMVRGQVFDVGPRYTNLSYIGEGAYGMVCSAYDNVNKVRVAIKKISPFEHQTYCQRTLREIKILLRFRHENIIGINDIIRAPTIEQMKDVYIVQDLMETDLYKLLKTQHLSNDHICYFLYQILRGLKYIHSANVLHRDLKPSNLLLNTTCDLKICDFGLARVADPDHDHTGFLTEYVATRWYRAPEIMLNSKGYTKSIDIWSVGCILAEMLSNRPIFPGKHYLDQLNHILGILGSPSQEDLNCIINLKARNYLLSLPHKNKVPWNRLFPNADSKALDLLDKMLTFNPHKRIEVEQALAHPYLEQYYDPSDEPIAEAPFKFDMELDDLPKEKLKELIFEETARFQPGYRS

[10] = tested on: Bel7402/5-FU; assay: Effect on cyclinB1 expression in human Bel7402/5-FU cells assessed as ratio of cyclinB1 to beta-actin level at 0.05 uM after 48 hrs by Western blot analysis (reference value: 0.53); assay type: functional
[11] = tested on: Bel7402/5-FU; assay: Induction of microtubule disruption in human Bel7402/5-FU cells at 0.05 uM after 24 to 48 hrs by DAPI staining based immunofluorescence microscopic method; assay type: functional, cell-based
[12] = tested on: Bel7402/5-FU; assay: Antiproliferative activity against human Bel7402/5-FU cells after 72 hrs by CCK-8 assay; assay type: functional, cell-based
[13] = tested on: Bel7402/5-FU; assay: Induction of apoptosis in human Bel7402/5-FU cells assessed as necrotic cells at 0.05 uM after 48 hrs by Annexin V-APC/7-AAD staining based flow cytometry (reference value: 0.58%); assay type: functional
[14] = tested on: Bel7402/5-FU; assay: Antimigratory activity in human Bel7402/5-FU cells at 0.05 uM after 24 hrs by wound healing assay; assay type: functional, cell-based
[15] = tested on: Bel7402/5-FU; assay: Effect on MMP2 expression in human Bel7402/5-FU cells assessed as ratio of MMP2 to beta-actin level at 0.05 uM after 48 hrs by Western blot analysis (reference value: 0.3); assay type: functional
[16] = tested on: Bel7402/5-FU; assay: Effect on COX2 expression in human Bel7402/5-FU cells assessed as ratio of COX2 to beta-actin level at 0.05 uM after 48 hrs by Western blot analysis (reference value: 0.36); assay type: functional
[17] = target: Signal transducer and activator of transcription 3 (Homo sapiens) (UniProt P40763); assay: Effect on STAT3 phosphorylation in human Bel7402/5-FU cells assessed as ratio of phosphorylated STAT3 to beta-actin level at 0.05 uM after 48 hrs by Western blot analysis (reference value: 0.3); assay type: cell-based
Chain of Signal transducer and activator of transcription 3 (Homo sapiens) (P40763 whole entry): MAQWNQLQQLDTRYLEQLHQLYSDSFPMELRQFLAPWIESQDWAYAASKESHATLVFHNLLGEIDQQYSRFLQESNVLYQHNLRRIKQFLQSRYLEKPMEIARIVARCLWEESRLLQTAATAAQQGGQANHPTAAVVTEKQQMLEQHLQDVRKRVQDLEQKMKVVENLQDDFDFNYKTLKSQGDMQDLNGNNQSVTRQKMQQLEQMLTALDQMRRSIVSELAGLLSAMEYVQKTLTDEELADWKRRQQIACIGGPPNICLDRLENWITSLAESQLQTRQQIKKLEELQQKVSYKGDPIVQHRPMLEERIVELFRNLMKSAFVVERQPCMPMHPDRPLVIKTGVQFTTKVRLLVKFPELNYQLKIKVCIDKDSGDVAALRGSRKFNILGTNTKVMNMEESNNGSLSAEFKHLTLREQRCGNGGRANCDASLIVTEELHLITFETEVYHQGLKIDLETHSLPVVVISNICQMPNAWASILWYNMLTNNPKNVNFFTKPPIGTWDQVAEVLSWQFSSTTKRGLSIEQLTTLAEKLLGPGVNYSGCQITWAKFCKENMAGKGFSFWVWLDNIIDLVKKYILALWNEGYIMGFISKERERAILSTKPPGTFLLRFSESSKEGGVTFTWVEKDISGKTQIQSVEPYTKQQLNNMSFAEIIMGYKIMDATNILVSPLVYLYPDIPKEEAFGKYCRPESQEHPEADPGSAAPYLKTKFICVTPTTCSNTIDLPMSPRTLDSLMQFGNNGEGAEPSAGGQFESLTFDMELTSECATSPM

[18] = tested on: Bel7402/5-FU; assay: Effect on COX1 expression in human Bel7402/5-FU cells assessed as ratio of COX1 to beta-actin level at 0.05 uM after 48 hrs by Western blot analysis (reference value: 0.48); assay type: functional
[19] = tested on: Bel7402/5-FU; assay: Induction of apoptosis in human Bel7402/5-FU cells assessed as ratio of cleaved caspase-9 to beta-actin level at 0.05 uM after 48 hrs by Western blot analysis (reference value: 0.17); assay type: functional
[20] = tested on: L02; assay: Antiproliferative activity against human LO2 cells after 72 hrs by CCK-8 assay; assay type: cell-based; conditions: L02, 72 h
[21] = tested on: Bel7402/5-FU; assay: Induction of apoptosis in human Bel7402/5-FU cells assessed as late apoptotic cells at 0.05 uM after 48 hrs by Annexin V-APC/7-AAD staining based flow cytometry (reference value: 3%); assay type: functional
[22] = tested on: Bel7402/5-FU; assay: Cell cycle arrest in human Bel7402/5-FU cells assessed as accumulation at G1 phase at 0.05 uM after 48 hrs by propidium iodide staining based flow cytometry (reference value: 52.21%); assay type: functional
[23] = tested on: Bel7402/5-FU; assay: Effect on P-gp expression in human Bel7402/5-FU cells assessed as ratio of P-gp to beta-actin level at 0.05 uM after 48 hrs by Western blot analysis (reference value: 0.59); assay type: functional
[24] = tested on: Bel7402/5-FU; assay: Effect on MRP1 expression in human Bel7402/5-FU cells assessed as ratio of MRP1 to beta-actin level at 0.05 uM after 48 hrs by Western blot analysis (reference value: 0.58); assay type: functional
[25] = tested on: Bel7402/5-FU; assay: Induction of apoptosis in human Bel7402/5-FU cells assessed as live cells at 0.05 uM after 48 hrs by Annexin V-APC/7-AAD staining based flow cytometry (reference value: 91.08%); assay type: functional
[26] = tested on: Bel7402/5-FU; assay: Induction of apoptosis in human Bel7402/5-FU cells assessed as reduction in cell number at 0.05 uM after 24 hrs by Hoechst 33342 staining based fluorescent microscopic method; assay type: functional
[27] = tested on: Bel7402/5-FU; assay: Effect on VEGFR2 expression in human Bel7402/5-FU cells assessed as ratio of VEGFR2 to beta-actin level at 0.05 uM after 48 hrs by Western blot analysis (reference value: 0.25); assay type: functional
[28] = tested on: Bel7402/5-FU; assay: Cell cycle arrest in human Bel7402/5-FU cells assessed as accumulation at G2 phase at 0.05 uM after 48 hrs by propidium iodide staining based flow cytometry (reference value: 35.16%); assay type: functional
[29] = tested on: Bel7402/5-FU; assay: Cell cycle arrest in human Bel7402/5-FU cells assessed as accumulation at S phase at 0.05 uM after 48 hrs by propidium iodide staining based flow cytometry (reference value: 12.62%); assay type: functional
[30] = tested on: Bel7402/5-FU; assay: Reduction in microtubule density in human Bel7402/5-FU cells at 0.05 uM after 24 to 48 hrs by DAPI staining based immunofluorescence microscopic method; assay type: functional, cell-based
[31] = tested on: Bel7402/5-FU; assay: Effect on CDK1 expression in human Bel7402/5-FU cells assessed as ratio of CDK1 to beta-actin level at 0.05 uM after 48 hrs by Western blot analysis (reference value: 0.33); assay type: functional
[32] = target: RAC-alpha serine/threonine-protein kinase (Homo sapiens) (UniProt P31749); assay: Effect on AKT phosphorylation in human Bel7402/5-FU cells assessed as ratio of phosphorylated AKT to beta-actin level at 0.05 uM after 48 hrs by Western blot analysis (reference value: 0.39); assay type: cell-based
Chain of RAC-alpha serine/threonine-protein kinase (Homo sapiens) (P31749 whole entry): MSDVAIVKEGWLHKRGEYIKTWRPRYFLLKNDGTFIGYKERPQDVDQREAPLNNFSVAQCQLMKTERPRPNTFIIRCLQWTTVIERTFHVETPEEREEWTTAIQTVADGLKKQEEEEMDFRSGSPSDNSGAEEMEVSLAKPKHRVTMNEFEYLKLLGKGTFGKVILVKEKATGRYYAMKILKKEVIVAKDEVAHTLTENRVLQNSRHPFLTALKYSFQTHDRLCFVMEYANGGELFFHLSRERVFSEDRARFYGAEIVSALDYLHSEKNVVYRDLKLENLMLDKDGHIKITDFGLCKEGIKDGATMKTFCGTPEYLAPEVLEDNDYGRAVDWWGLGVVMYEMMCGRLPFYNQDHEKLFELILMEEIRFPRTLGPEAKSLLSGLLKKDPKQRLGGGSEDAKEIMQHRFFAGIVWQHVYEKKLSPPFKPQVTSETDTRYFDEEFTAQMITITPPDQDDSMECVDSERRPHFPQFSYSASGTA

[33] = tested on: Bel7402/5-FU; assay: Induction of apoptosis in human Bel7402/5-FU cells assessed as condensed nuclei at 0.05 uM after 24 hrs by Hoechst 33342 staining based fluorescent microscopic method; assay type: functional, cell-based
[34] = Resistant factor, ratio of IC50 for human Bel7402/5-FU cells to IC50 for human Bel7402 cells; assay type: functional
[35] = tested on: Bel7402/5-FU; assay: Effect on cyclinA expression in human Bel7402/5-FU cells assessed as ratio of cyclinA to beta-actin level at 0.05 uM after 48 hrs by Western blot analysis (reference value: 0.39); assay type: functional
[36] = tested on: Bel7402/5-FU; assay: Induction of apoptosis in human Bel7402/5-FU cells assessed as early apoptotic cells at 0.05 uM after 48 hrs by Annexin V-APC/7-AAD staining based flow cytometry (reference value: 5.24%); assay type: functional
[37] = tested on: Bel7402/5-FU; assay: Effect on CDK2 expression in human Bel7402/5-FU cells assessed as ratio of CDK2 to beta-actin level at 0.05 uM after 48 hrs by Western blot analysis (reference value: 0.43); assay type: functional

With `COc1cc([C@@H]2c3cc4c(cc3[C@H](O)[C@H]3COC(=O)[C@H]23)OCO4)cc(OC)c1OC` [PODOFILOX] the IC50 [1] was 52 nM, the Ratio [2] was 0.26 and the Ratio [3] was 0.18. For the same molecule, the Activity [4] was “Active”, the Activity [5] was “Active” and the Ratio [6] was 0.27. The Ratio [7] was 0.28, the Ratio [8] was 0.38 and the Ratio [9] was 0.38. The Ratio [10] was 0.41, the Activity [11] was “Active” and the IC50 [12] was 44 nM. For the same molecule, the Activity [13] was 4.65%, the Activity [14] was “Active” and the Ratio [15] was 0.13. It also gave a Ratio [16] of 0.39, a Ratio [17] of 0.41 and a Ratio [18] of 0.43. For the same molecule, the Ratio [19] was 0.26, the IC50 [20] was 22 nM and the Activity [21] was 23.17%. The Activity [22] was 17.28%, the Ratio [23] was 0.49 and the Ratio [24] was 0.52. The Activity [25] was 63.7%, the Activity [26] was “Active” and the Ratio [27] was 0.22. The Activity [28] was 73.62%, the Activity [29] was 9.1% and the Activity [30] was “Active”. For the same molecule, the Ratio [31] was 0.33, the Ratio [32] was 0.35 and the Activity [33] was “Active”. For the same molecule, the “Ratio IC50” value [34] was 0.84, the Ratio [35] was 0.27 and the Activity [36] was 8.48%. It also gave a Ratio [37] of 0.29.
